Measurements published in BindingDB's records for doi:10.1016/j.bmcl.2019.06.040 (Shenyang Pharmaceutical University, 2019).

molecular target: T1, Cytochrome P450 11B2, mitochondrial (Homo sapiens, UniProt P19099); experiment: Inhibition of CYP11B2 (unknown origin)
T1 sequence (P19099 whole entry): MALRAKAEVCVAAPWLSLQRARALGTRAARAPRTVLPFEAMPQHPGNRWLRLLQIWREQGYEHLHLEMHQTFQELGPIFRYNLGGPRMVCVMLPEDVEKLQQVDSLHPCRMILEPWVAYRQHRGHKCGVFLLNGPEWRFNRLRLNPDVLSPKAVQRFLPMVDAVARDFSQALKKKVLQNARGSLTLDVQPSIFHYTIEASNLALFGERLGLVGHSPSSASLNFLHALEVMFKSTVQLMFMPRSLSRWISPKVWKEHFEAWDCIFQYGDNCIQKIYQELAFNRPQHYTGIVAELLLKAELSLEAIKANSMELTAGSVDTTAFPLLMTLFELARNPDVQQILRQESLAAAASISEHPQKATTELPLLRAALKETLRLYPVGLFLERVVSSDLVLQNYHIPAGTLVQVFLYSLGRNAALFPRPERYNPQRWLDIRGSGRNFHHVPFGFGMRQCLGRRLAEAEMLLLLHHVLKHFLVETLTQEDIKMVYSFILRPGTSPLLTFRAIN

Going from `Cc1nnc2n1-c1cc(F)c(-c3cccnc3)cc1CC2` to `Cc1nnc2n1-c1c(F)cc(-c3cccnc3)cc1CC2`, the IC50 falls from 131 nM to 63 nM (2.1-fold). The second is the more potent here.

`Fc1cc(-c2cccnc2)cc2c1-n1cnnc1CC2` and `Fc1cc2c(cc1-c1cccnc1)CCc1nncn1-2` are within 1.5-fold of each other in IC50: 172 nM for the first, 244 nM for the second.
